Source: publication PMC6478161 (Biochemistry, 2016)
Several values for one entry are separate records, joined by “and”; a condition that tells them apart may be missing. Equal entries are not always repeated.

Experiments:
WT LacY [1] = target: WT LacY (Escherichia coli, UniProt P02920); assay: ITC, sugar; type: binding
WT:Nb-9065 = WT:Nb-9065 (Escherichia coli, UniProt P02920); assay: ITC, α-NPG binding to WT LacY:Nb-9065 complex
Mutant:Nb-9065 = Mutant:Nb-9065 (Escherichia coli, UniProt P02920, G262W/G46W); assay: ITC, α-NPG binding to double-Trp mutant:Nb-9065 complex
Sequence of Mutant:Nb-9065 (P02920 whole entry G46W/G262W): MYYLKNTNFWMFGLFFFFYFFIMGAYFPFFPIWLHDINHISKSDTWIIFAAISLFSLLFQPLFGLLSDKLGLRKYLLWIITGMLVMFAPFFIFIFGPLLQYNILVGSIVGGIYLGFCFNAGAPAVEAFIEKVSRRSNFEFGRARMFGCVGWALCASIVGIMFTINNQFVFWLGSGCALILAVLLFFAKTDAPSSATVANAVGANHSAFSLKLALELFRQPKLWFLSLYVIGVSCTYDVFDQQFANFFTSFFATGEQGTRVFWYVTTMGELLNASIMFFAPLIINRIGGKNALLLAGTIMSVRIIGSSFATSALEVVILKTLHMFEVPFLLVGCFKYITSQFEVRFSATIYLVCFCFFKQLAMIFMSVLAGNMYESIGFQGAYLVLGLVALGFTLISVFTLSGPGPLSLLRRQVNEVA

[2] = target: Double-Trp mutant (G46W/G262W LacY) (Escherichia coli, UniProt P02920, G262W/G46W); assay: ITC, α-NPG binding to double-Trp mutant LacY; conditions: ITC at 25 °C; no Nb
Sequence of Double-Trp mutant (G46W/G262W LacY) (P02920 whole entry G46W/G262W): as above
Mutant:Nb-9036 = Mutant:Nb-9036 (Escherichia coli, UniProt P02920, G262W/G46W); assay: ITC, α-NPG binding to double-Trp mutant:Nb-9036 complex
Sequence of Mutant:Nb-9036 (P02920 whole entry G46W/G262W): as above
WT:Nb-9036 = WT:Nb-9036 (Escherichia coli, UniProt P02920); assay: ITC, α-NPG binding to WT LacY:Nb-9036 complex
WT LacY:Nb-9036 = target: T1, WT LacY:Nb-9036 (Escherichia coli, UniProt P02920); assay: ITC, IIA^Glc titration of WT LacY:Nb-9036 complex; type: binding; conditions: WT pre-equilibrated with Nb-9036; 10 mM melibiose
T1 sequence (P02920 whole entry, looked up): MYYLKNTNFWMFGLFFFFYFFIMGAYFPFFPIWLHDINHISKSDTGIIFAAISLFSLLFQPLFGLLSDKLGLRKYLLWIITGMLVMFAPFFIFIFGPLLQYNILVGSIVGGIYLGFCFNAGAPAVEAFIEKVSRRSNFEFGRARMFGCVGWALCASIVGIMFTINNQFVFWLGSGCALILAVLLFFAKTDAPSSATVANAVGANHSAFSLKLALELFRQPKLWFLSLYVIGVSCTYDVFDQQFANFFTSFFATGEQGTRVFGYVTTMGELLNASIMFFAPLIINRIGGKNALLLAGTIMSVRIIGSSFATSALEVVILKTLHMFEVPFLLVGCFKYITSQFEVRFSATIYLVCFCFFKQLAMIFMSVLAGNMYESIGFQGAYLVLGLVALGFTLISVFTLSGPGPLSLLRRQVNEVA

WT LacY:Nb-9065 = target: T2, WT LacY:Nb-9065 (Escherichia coli, UniProt P02920); conditions: WT pre-equilibrated with Nb-9065; 10 mM melibiose
T2 sequence (P02920 whole entry, looked up): T1 sequence (P02920 whole entry, looked up)

WT LacY [3] = target: T3, WT LacY (Escherichia coli, UniProt P02920); conditions: cytoplasmic face of the WT; cited from earlier work
T3 sequence (P02920 whole entry, looked up): T1 sequence (P02920 whole entry, looked up)

double-Trp mutant = conditions: cited from earlier work
[4] = target: T4, lactose permease of Escherichia coli (LacY), wild type (Escherichia coli, UniProt P02920 1-417); assay: ITC
T4 sequence: T1 sequence (P02920 whole entry, looked up)

[5] = ITC at 25 °C, WT pre-incubated with Nb-9065
[6] = difference in the absence and presence of Nb-9065, WT
[7] = ITC at 25 °C, mutant pre-incubated with Nb-9065
[8] = difference in the absence and presence of Nb-9065, mutant
[9] = ITC at 25 °C, mutant pre-incubated with Nb-9036
[10] = difference in the absence and presence of Nb-9036, mutant
[11] = difference in the absence and presence of Nb-9036, mutant, listed as galactoside
[12] = ITC at 25 °C, WT pre-incubated with Nb-9036
[13] = difference in the absence and presence of Nb-9036, WT
[14] = difference in the absence and presence of Nb-9036, WT, listed as galactoside

**Q.** Which “titration thermogram (control)” value (WT LacY [1]; ITC, 1 mM injected into WT LacY) does the source give for O=[N+]([O-])c1ccc(O[C@H]2O[C@H](CO)[C@@H](O)[C@H](O)[C@H]2O)cc1 [nitrophenyl-α-D-glucopyranoside] here?
**A.** Its value is “small, relatively flat thermogram”.

**Q.** With O=[N+]([O-])c1ccc(O[C@H]2O[C@H](CO)[C@H](O)[C@H](O)[C@H]2O)cc1 [α-NPG, p-nitrophenyl-α-D-galactopyranoside] as the molecule, how does the “-TΔS” value (WT:Nb-9065; [5]) read?
**A.** The value was 21.0 (1.7) kJ/mol.

**Q.** And the Kd (WT:Nb-9065; [5])?
**A.** Its Kd is 5700 nM.

**Q.** And the “N (stoichiometry)” value (WT:Nb-9065; [5])?
**A.** The value was 0.5 (0.0).

**Q.** What about the ΔG (WT:Nb-9065; [5]) of the same molecule?
**A.** The ΔG was −30.0 (0.1) kJ/mol.

**Q.** What about the ΔH (WT:Nb-9065; [5]) of the same molecule?
**A.** The ΔH was −51.0 (1.8) kJ/mol.

**Q.** And the “fold decrease in Kd by Nb” value (WT:Nb-9065; Nb-9065:WT complex versus WT alone)?
**A.** Its value is 4 fold.

**Q.** And the ΔΔG (WT:Nb-9065; [6])?
**A.** Its ΔΔG is “[−4.1 ^**] kJ/mol”.

**Q.** And the ΔΔH (WT:Nb-9065; [6])?
**A.** Its ΔΔH is “[−35.4 ^*] kJ/mol”.

**Q.** What about the “−TΔΔS” value (WT:Nb-9065; [6]) of the same molecule?
**A.** Its value is “[31.3 ^*] kJ/mol”.

**Q.** What about the “-TΔS” value (Mutant:Nb-9065; [7]) of the same molecule?
**A.** The value was 12.43 (0.9) kJ/mol.

**Q.** And the Kd (Mutant:Nb-9065; [7])?
**A.** The Kd was 7100 nM.

**Q.** What about the “N (stoichiometry)” value (Mutant:Nb-9065; [7]) of the same molecule?
**A.** Its value is 0.4 (0.0).

**Q.** What about the ΔG (Mutant:Nb-9065; [7]) of the same molecule?
**A.** The ΔG was −29.4 (0.2) kJ/mol.

**Q.** And the ΔH (Mutant:Nb-9065; [7])?
**A.** The ΔH was −41.8 (1.05) kJ/mol.

**Q.** And the “change in Kd by Nb” value (Mutant:Nb-9065; Nb-9065:mutant complex versus mutant alone)?
**A.** Its value is “no detectable change”.

**Q.** What about the ΔΔG (Mutant:Nb-9065; [8]) of the same molecule?
**A.** Its ΔΔG is “[0.9^ns] kJ/mol”.

**Q.** What about the ΔΔH (Mutant:Nb-9065; [8]) of the same molecule?
**A.** The ΔΔH was “[0.3^ns] kJ/mol”.

**Q.** What about the “−TΔΔS” value (Mutant:Nb-9065; [8]) of the same molecule?
**A.** The value was “[0.6^ns] kJ/mol”.

**Q.** What about the “-TΔS” value [2] of the same molecule?
**A.** The value was 11.8 (0.3) kJ/mol.

**Q.** What about the Kd [2] of the same molecule?
**A.** Its Kd is 5000 nM.

**Q.** And the “N (stoichiometry)” value [2]?
**A.** Its value is 0.5 (0.0).

**Q.** What about the ΔG [2] of the same molecule?
**A.** Its ΔG is −30.3 (0.3) kJ/mol.

**Q.** What about the ΔH [2] of the same molecule?
**A.** The ΔH was −42.1 (0.0) kJ/mol.

**Q.** What about the “-TΔS” value (WT LacY [1]; ITC at 25 °C, no Nb) of the same molecule?
**A.** Its value is −10.3 (3.6) kJ/mol.

**Q.** What about the Kd (WT LacY [1]; ITC at 25 °C, no Nb) of the same molecule?
**A.** Its Kd is 28800 nM.

**Q.** And the “N (stoichiometry)” value (WT LacY [1]; ITC at 25 °C, no Nb)?
**A.** The value was 0.6 (0.1).

**Q.** And the ΔG (WT LacY [1]; ITC at 25 °C, no Nb)?
**A.** Its ΔG is −25.9 (0.2) kJ/mol.

**Q.** What about the ΔH (WT LacY [1]; ITC at 25 °C, no Nb) of the same molecule?
**A.** The ΔH was −15.6 (3.4) kJ/mol.

**Q.** And the “-TΔS” value (Mutant:Nb-9036; [9])?
**A.** Its value is 34.2 (2.9) kJ/mol.

**Q.** What about the Kd (Mutant:Nb-9036; [9]) of the same molecule?
**A.** The Kd was ~300 nM and 300 nM.

**Q.** What about the “N (stoichiometry)” value (Mutant:Nb-9036; [9]) of the same molecule?
**A.** The value was 0.6 (0.0).

**Q.** What about the ΔG (Mutant:Nb-9036; [9]) of the same molecule?
**A.** Its ΔG is −37.5 (0.4) kJ/mol.

**Q.** And the ΔH (Mutant:Nb-9036; [9])?
**A.** The ΔH was −71.7 (2.5) kJ/mol.

**Q.** And the “fold decrease in Kd (increase in affinity) by Nb” value (Mutant:Nb-9036; Nb-9036:mutant complex versus mutant alone)?
**A.** Its value is ~19 fold.

**Q.** And the ΔΔG (Mutant:Nb-9036; [10])?
**A.** Its ΔΔG is “[−7.2 ^**] kJ/mol”.

**Q.** And the ΔΔH (Mutant:Nb-9036; [10])?
**A.** The ΔΔH was “[−29.6 ^**] kJ/mol”.

**Q.** And the “−TΔΔS” value (Mutant:Nb-9036; [10])?
**A.** The value was “[22.4 ^*] kJ/mol”.

**Q.** What about the ΔΔH (Mutant:Nb-9036; [11]) of the same molecule?
**A.** Its ΔΔH is -7.07 kcal/mol.

**Q.** And the “−TΔΔS” value (Mutant:Nb-9036; [11])?
**A.** Its value is 5.35 kcal/mol.

**Q.** And the “-TΔS” value (WT:Nb-9036; [12])?
**A.** The value was 17.2 (0.5) kJ/mol.

**Q.** What about the Kd (WT:Nb-9036; [12]) of the same molecule?
**A.** Its Kd is ~300 nM and 300 nM.

**Q.** And the “N (stoichiometry)” value (WT:Nb-9036; [12])?
**A.** Its value is 0.5 (0.1).

**Q.** And the ΔG (WT:Nb-9036; [12])?
**A.** Its ΔG is −37.1 (0.6) kJ/mol.

**Q.** And the ΔH (WT:Nb-9036; [12])?
**A.** The ΔH was −54.3 (1.1) kJ/mol.

**Q.** And the “fold decrease in Kd (increase in affinity) by Nb” value (WT:Nb-9036; Nb-9036:WT complex versus WT alone)?
**A.** Its value is ~96 fold.

**Q.** And the ΔΔG (WT:Nb-9036; [13])?
**A.** Its ΔΔG is “[−11.2 ^**] kJ/mol”.

**Q.** What about the ΔΔH (WT:Nb-9036; [13]) of the same molecule?
**A.** Its ΔΔH is “[−38.7 ^**] kJ/mol”.

**Q.** And the “−TΔΔS” value (WT:Nb-9036; [13])?
**A.** The value was “[27.5 ^*] kJ/mol”.

**Q.** And the ΔΔH (WT:Nb-9036; [14])?
**A.** The ΔΔH was -9.25 kcal/mol.

**Q.** What about the “−TΔΔS” value (WT:Nb-9036; [14]) of the same molecule?
**A.** Its value is 6.57 kcal/mol.

**Q.** For “IIA^Glc: a phosphotransferase protein of the glucose-specific phosphoenolpyruvate:carbohydrate phosphotransferase system (E. coli, unphosphorylated)”, which “IIA^Glc binding (thermogram)” value (WT LacY:Nb-9036) is on record?
**A.** Its value is “no IIA^Glc binding”.

**Q.** And the “IIA^Glc binding (thermogram)” value (WT LacY:Nb-9065)?
**A.** Its value is “no IIA^Glc binding”.

**Q.** What about the “heat of IIA^Glc binding” value (WT LacY [3]) of the same molecule?
**A.** The value was “endothermic”.

**Q.** And the “IIA^Glc binding” value (double-Trp mutant)?
**A.** Its value is “does not bind”.

B1: IIA^Glc, phosphotransferase protein of the glucose-specific phosphoenolpyruvate:carbohydrate phosphotransferase system (natural protein, E. coli, UniProt P69783 1-169, looked up)
chain: MGLFDKLKSLVSDDKKDTGTIEIIAPLSGEIVNIEDVPDVVFAEKIVGDGIAIKPTGNKMVAPVDGTIGKIFETNHAFSIESDSGVELFVHFGIDTVELKGEGFKRIAEEGQRVKVGDTVIEFDLPLLEEKAKSTLTPVVISNMDEIKELIKLSGSVTVGETPVIRIKK
**Q.** Does B1 bind [4]?
**A.** Result: binds
